# From BindingDB's records for PubMed 32485533 (Isf College of Pharmacy, 2020)
# Assay: Inhibition of human recombinant sPLA2-V at 1 uM
compound,measurement,value
"COc1ccc(-c2nc3c(C(N)=O)cccc3[nH]2)cc1 [2-(4-methoxyphenyl)-1H-1,3-benzodiazole-4-carboxamide]",IC50,3.22 µM
